Data from patent US9657351B2, “MRNA-based gene expression for personalizing patient cancer therapy with an MDM2 antagonist” (Hoffmann-La Roche Inc., priority 2013, dated 2017).
pIC50: −log10 of the molar value.

What was measured:
Assay in all cases: COMPOUND A In Vitro Assay
Format in all cases: cell-based
HT-1376 = details: Homo sapiens, Urinary, bladder, TP53 Mutant
How it was run: (§1)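 IC50 is the reported therapy response, obtained by high-throughput screening of human cancer cell lines exposed to RG7112. Values at or below 1 classify a line as sensitive. Values of 10 or more mark it resistant.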

CFPAC-1 = details: Homo sapiens, Pancreas, TP53 Mutant
How it was run: as §1

TF-1a = details: Homo sapiens, Bone marrow, TP53 Mutant
How it was run: as §1

U-937 = details: Homo sapiens, Pleura, TP53 Mutant
How it was run: as §1

SBC-5 = details: Homo sapiens, Lung, TP53 Mutant
How it was run: as §1

COLO-824 = details: Homo sapiens, Breast, TP53 Wild type
How it was run: as §1

KMS-12-PE = details: Homo sapiens, Plasma, TP53 Mutant
How it was run: as §1

NCI-H250 = details: Homo sapiens, Lung, TP53 NA
How it was run: as §1

NCI-H2227 = details: Homo sapiens, Lung, TP53 Mutant
How it was run: as §1

HCT-8 = details: Homo sapiens, Intestine, large, colon, TP53 Wild type
How it was run: as §1

SK-OV-3 = details: Homo sapiens, Ovary, TP53 Mutant
How it was run: as §1

J82 = details: Homo sapiens, Urinary, bladder, TP53 Mutant
How it was run: as §1

NCI-H520 = details: Homo sapiens, Lung, TP53 Mutant
How it was run: as §1

NCI-H292 = details: Homo sapiens, Lung, TP53 Wild type
How it was run: as §1

MFM-223 = details: Homo sapiens, Breast, mammary gland, TP53 Mutant
How it was run: as §1

SCC-25 = details: Homo sapiens, Tongue, TP53 Mutant
How it was run: as §1

MCF10DCIS•com = details: Homo sapiens, Breast, TP53 Wild type
How it was run: as §1

U266B1 = details: Homo sapiens
How it was run: as §1

PLC/PRF/5 = details: Homo sapiens, Liver, TP53 Mutant
How it was run: as §1

BxPC-3 = details: Homo sapiens, Pancreas, TP53 Mutant
How it was run: as §1

JIMT-1 = details: Homo sapiens, Breast, TP53 Mutant
How it was run: as §1

8305C = details: Homo sapiens, Thyroid gland, TP53 Mutant
How it was run: as §1

786-O = details: Homo sapiens, 786-0, Kidney, TP53 Mutant
How it was run: as §1

SK-N-F1 = details: Homo sapiens, Brain, TP53 Mutant
How it was run: as §1

MKN-74 = details: Homo sapiens
How it was run: as §1

SW626 = details: Homo sapiens, Ovary, TP53 Mutant
How it was run: as §1

NB-4 = details: Homo sapiens, Myeloblast, TP53 Mutant
How it was run: as §1

SW948 = details: Homo sapiens, Intestine, large, colon, TP53 Mutant
How it was run: as §1

MDA-MB-435S = details: Homo sapiens, Skin, TP53 Mutant
How it was run: as §1

U-2197 = details: Homo sapiens, Skin, hypodermis, subcutaneous, TP53 Mutant
How it was run: as §1

NCI-H1944 = details: Homo sapiens, Lung, TP53 Wild type
How it was run: as §1

ABC-1 = details: Homo sapiens, Lung, TP53 Mutant
How it was run: as §1

10C9 = details: Homo sapiens
How it was run: as §1

YAPC = details: Homo sapiens, Pancreas, TP53 Mutant
How it was run: as §1

NCI-H1395 = details: Homo sapiens, Lung, TP53 Wild type
How it was run: as §1

HDLM-2 = details: Homo sapiens, Lymphocyte B, TP53 Mutant
How it was run: as §1

SK-N-AS = details: Homo sapiens, Brain, TP53 Mutant
How it was run: as §1

Question: With `CCOc1cc(C(C)(C)C)ccc1C1=N[C@@](C)(c2ccc(Cl)cc2)[C@@](C)(c2ccc(Cl)cc2)N1C(=O)N1CCN(CCCS(C)(=O)=O)CC1` [COMPOUND A] as the molecule, how does the pIC50 (HT-1376) read?
Answer: 4.80

Question: What about the pIC50 (CFPAC-1) of the same molecule?
Answer: 5.24

Question: And the pIC50 (TF-1a)?
Answer: 5.00

Question: And the pIC50 (U-937)?
Answer: 5.28

Question: What about the pIC50 (SBC-5) of the same molecule?
Answer: 4.74

Question: What about the pIC50 (COLO-824) of the same molecule?
Answer: 4.82

Question: And the pIC50 (KMS-12-PE)?
Answer: 5.28

Question: And the pIC50 (NCI-H250)?
Answer: 4.92

Question: What about the pIC50 (NCI-H2227) of the same molecule?
Answer: 4.80

Question: What about the pIC50 (HCT-8) of the same molecule?
Answer: 4.80

Question: What about the pIC50 (SK-OV-3) of the same molecule?
Answer: 4.77

Question: And the pIC50 (J82)?
Answer: 4.70

Question: What about the pIC50 (NCI-H520) of the same molecule?
Answer: 4.77

Question: And the pIC50 (NCI-H292)?
Answer: 5.80

Question: And the pIC50 (MFM-223)?
Answer: 4.77

Question: What about the pIC50 (SCC-25) of the same molecule?
Answer: 5.03

Question: What about the pIC50 (MCF10DCIS•com) of the same molecule?
Answer: 5.85

Question: And the pIC50 (U266B1; U266B1, Lymphocyte B, TP53 Mutant)?
Answer: 4.74

Question: And the pIC50 (U266B1; U266B1 cells)?
Answer: 4.74

Question: And the pIC50 (PLC/PRF/5)?
Answer: 5.15

Question: What about the pIC50 (BxPC-3) of the same molecule?
Answer: 4.74

Question: What about the pIC50 (JIMT-1) of the same molecule?
Answer: 4.96

Question: What about the pIC50 (8305C) of the same molecule?
Answer: 4.62

Question: And the pIC50 (786-O)?
Answer: 5.02

Question: And the pIC50 (SK-N-F1)?
Answer: 4.77

Question: What about the pIC50 (MKN-74; MKN-74, MKN-74, Muscle, smooth, stomach, TP53 Wild type) of the same molecule?
Answer: 6.06

Question: What about the pIC50 (MKN-74; MKN-74, MKN-74 cells) of the same molecule?
Answer: 6.05

Question: And the pIC50 (SW626)?
Answer: 5.02

Question: What about the pIC50 (NB-4) of the same molecule?
Answer: 5.33

Question: And the pIC50 (SW948)?
Answer: 4.72

Question: What about the pIC50 (MDA-MB-435S) of the same molecule?
Answer: 4.92

Question: What about the pIC50 (U-2197) of the same molecule?
Answer: 4.66

Question: What about the pIC50 (NCI-H1944) of the same molecule?
Answer: 5.15

Question: And the pIC50 (ABC-1)?
Answer: 5.00

Question: What about the pIC50 (10C9; 10C9, Lymphocyte B, TP53 Mutant) of the same molecule?
Answer: 4.72

Question: What about the pIC50 (10C9; 10C9 cells) of the same molecule?
Answer: 4.72

Question: What about the pIC50 (YAPC) of the same molecule?
Answer: 4.74

Question: What about the pIC50 (NCI-H1395) of the same molecule?
Answer: 5.89

Question: And the pIC50 (HDLM-2)?
Answer: 4.48

Question: What about the pIC50 (SK-N-AS) of the same molecule?
Answer: 4.89
